# Test system: NCI-H1155 cells
# Assay: NSCLC cell viability, CellTiter-Glo, NCI-H1155 cells
# Type: cell-based
# Settings: Homo sapiens; NCI-H1155 cells, CellTiter-Glo, 72 hours of treatment; read-out: Cell viability classification (NCI-H1155)
row,Compound,IC50 [µM]
1,"O=C1CCC(N2Cc3cc(C(=O)N4CC5(C4)CC(O)(c4ccc(F)cc4)C5)ccc3C2=O)C(=O)N1 (stereo not shown) [Example 243, 3-(5-(6-(4-fluorophenyl)-6-hydroxy-2-azaspiro[3.3]heptane-2-carbonyl)-1-oxoisoindolin-2-yl)piperidine-2,6-dione]",> 1
2,"COC1(c2ccc(F)cc2)CC2(CN(C(=O)c3ccc4c(c3)CN(C3CCC(=O)NC3=O)C4=O)C2)C1 (stereo not shown) [Example 244, 3-(5-(6-(4-fluorophenyl)-6-methoxy-2-azaspiro[3.3]heptane-2-carbonyl)-1-oxoisoindolin-2-yl)piperidine-2,6-dione]",0.1 to 1
3,"O=C1CCC(N2Cc3cc(C(=O)N4CCC5(C=C(c6ccc(F)cc6)C5)C4)ccc3C2=O)C(=O)N1 (stereo not shown) [Example 247, 3-(5-(2-(4-fluorophenyl)-6-azaspiro[3.4]oct-1-ene-6-carbonyl)-1-oxoisoindolin-2-yl)piperidine-2,6-dione]",0.01 to 0.1
4,"O=C1CCC(N2Cc3cc(C(=O)N4CCC5(C=C(c6cccc(F)c6)C5)C4)ccc3C2=O)C(=O)N1 (stereo not shown) [Example 249, 3-(5-(2-(3-fluorophenyl)-6-azaspiro[3.4]oct-1-ene-6-carbonyl)-1-oxoisoindolin-2-yl)piperidine-2,6-dione]",0.01 to 0.1
5,"O=C1CCC(N2Cc3cc(C(=O)N4CC5(CCC(C(F)(F)F)CC5)C4)ccc3C2=O)C(=O)N1 (stereo not shown) [Example 251, 3-(1-oxo-5-(7-(trifluoromethyl)-2-azaspiro[3.5]nonane-2-carbonyl)isoindolin-2-yl)piperidine-2,6-dione]",0.1 to 1
6,"O=C1CCC(c2nc3ccc(C(=O)N4CC5(CCC(C(F)(F)F)C5)C4)cc3o2)C(=O)N1 (stereo not shown) [Example 252, 3-(6-(6-(trifluoromethyl)-2-azaspiro[3.4]octane-2-carbonyl)benzo[d]oxazol-2-yl)piperidine-2,6-dione]",> 1
7,"O=C1CCC(c2nc3cc(COC(=O)NC4CC5(C4)CC(F)(F)C5)ccc3o2)C(=O)N1 (stereo not shown) [Example 253, (2-(2,6-dioxopiperidin-3-yl)benzo[d]oxazol-5-yl)methyl (6,6-difluorospiro[3.3]heptan-2-yl)carbamate]",> 1

# More lines, now with the values ahead:
row,IC50 [µM],Compound
1,0.1 to 1,"N#Cc1ccccc1C1CC2(C1)CN(C(=O)c1ccc3c(c1)CN(C1CCC(=O)NC1=O)C3=O)C2 (stereo not shown) [Example 239, 2-(2-(2-(2,6-dioxopiperidin-3-yl)-1-oxoisoindoline-5-carbonyl)-2-azaspiro[3.3]heptan-6-yl)benzonitrile]"
2,0.01 to 0.1,"N#Cc1ccc(C2=CC3(C2)CN(C(=O)c2ccc4c(c2)CN(C2CCC(=O)NC2=O)C4=O)C3)cc1 (stereo not shown) [Example 242, 4-(2-(2-(2,6-dioxopiperidin-3-yl)-1-oxoisoindoline-5-carbonyl)-2-azaspiro[3.3]hept-5-en-6-yl)benzonitrile]"
3,0.01 to 0.1,"O=C1CCC(N2Cc3cc(C(=O)N4CC5(CC(c6ccc(C(F)(F)F)c(F)c6)C5)C4)ccc3C2=O)C(=O)N1 (stereo not shown) [Example 245, 3-(5-(6-(3-fluoro-4-(trifluoromethyl)phenyl)-2-azaspiro[3.3]heptane-2-carbonyl)-1-oxoisoindolin-2-yl)piperidine-2,6-dione]"
4,0.01 to 0.1,"O=C1CCC(N2Cc3cc(C(=O)N4CC5(CC(c6ccc(C(F)(F)F)cc6F)C5)C4)ccc3C2=O)C(=O)N1 (stereo not shown) [Example 246, 3-(5-(6-(2-fluoro-4-(trifluoromethyl)phenyl)-2-azaspiro[3.3]heptane-2-carbonyl)-1-oxoisoindolin-2-yl)piperidine-2,6-dione]"
5,0.01 to 0.1,"O=C1CCC(N2Cc3cc(C(=O)N4CCC5(CC(c6ccc(F)cc6)C5)C4)ccc3C2=O)C(=O)N1 (stereo not shown) [Example 248, 3-(5-(2-(4-fluorophenyl)-6-azaspiro[3.4]octane-6-carbonyl)-1-oxoisoindolin-2-yl)piperidine-2,6-dione]"
6,0.1 to 1,"O=C1CCC(N2Cc3cc(C(=O)N4CCC5(CC(c6cccc(F)c6)C5)C4)ccc3C2=O)C(=O)N1 (stereo not shown) [Example 250, 3-(5-(2-(3-fluorophenyl)-6-azaspiro[3.4]octane-6-carbonyl)-1-oxoisoindolin-2-yl)piperidine-2,6-dione]"
